According to PubChem BioAssay AID743230:

Target: cofactor-independent phosphoglycerate mutase (iPGM), Brugia malayi / Caenorhabditis elegans
Assay: nematode iPGM enzyme inhibitors, biochemical, cofactor-independent, HTS (AID 743230)
Conditions: recombinant nematode iPGM, coupled NADH absorbance decline

Compound: Nc1cc2cccnc2c2ncccc12
- IC50: 38.3 µM

Compound: CCc1cc2c[n+](C3CCCCC3)sc2s1
- IC50: 10.4 µM
